In brackets after ≈: the same amount, converted by molar mass. Where two headings read alike, the source gives them in different places.
What was measured:
[1] = test system: N. gonorrhoeae strain H041
(non-mosaic) PBP2 = conditions: membrane preparations; cited from earlier work
tPBP2^H041-K361E [2] = experiment: gel-based competition assay with Bocillin-FL against K361E mutant; assay type: biochemical, Neisseria gonorrhoeae; conditions: for reduction in acylation rate against K361E mutant: K361E versus native tPBP2^H041; for Fractional Activity: fractional acylation rate of K361E compared to native tPBP2^H041; for K361E k2/Ks: tPBP2^H041-K361E mutant, competition with Bocillin-FL
N. gonorrhoeae H041 = experiment: minimum inhibitory concentration by agar dilution; assay type: cell-based, Neisseria gonorrhoeae
tPBP2^H041 [3] = experiment: gel-based competition assay with Bocillin-FL, second-order acylation rate; assay type: biochemical, Neisseria gonorrhoeae
[4] = cited from earlier work
tPBP2^H041-K361E [5] = experiment: time-dependent gel-based assay, acylation of K361E mutant by Bocillin-FL; assay type: biochemical, Neisseria gonorrhoeae
tPBP2^H041 [6] = experiment: time-dependent gel-based assay, second-order acylation by Bocillin-FL; assay type: biochemical, Neisseria gonorrhoeae; conditions: time-course, pH 8.0, room temperature
[7] = whole molecule; cited from earlier work
[8] = test system: FA19 with mosaic penA gene from H041 (penA41); conditions: allelic exchange; cited from earlier work
tPBP2^H041 [9] = conditions: cited from earlier work
H041 = conditions: cited from earlier work
[10] = test system: wild-type PBP2 (tPBP2^WT); conditions: cited from earlier work
[11] = Neisseria gonorrhoeae, H041, 24 h

CCN1CCN(C(=O)N[C@@H](C(=O)N[C@@H]2C(=O)N3C(C(=O)O)=C(CSc4nnnn4C)CS[C@H]23)c2ccc(O)cc2)C(=O)C1=O [cefoperazone]
culture negativity ([1]; 120 mg/kg TID one day, intraperitoneal, by day 3 post-treatment, n = 9): 100%
concentration at which bound to PBP2 ((non-mosaic) PBP2): less than 10^−3 μg/mL
reduction in acylation rate against K361E mutant (tPBP2^H041-K361E [2]): 32 fold
Fractional Activity (tPBP2^H041-K361E [2]): 0.03
K361E k2/Ks (tPBP2^H041-K361E [2]): 370 ± 60 M⁻¹ s⁻¹
MIC (N. gonorrhoeae H041; [11]): 1 µg/mL (≈ 1.55 µM)
acylation rate relative to ceftriaxone (faster) (tPBP2^H041 [3]): 7 fold
route of excretion [4]: primarily biliary

CNC(C)C1CCC(N)C(OC2C(N)CC(N)C(OC3OCC(C)(O)C(NC)C3O)C2O)O1 (stereo not shown) [gentamicin]
culture negativity ([1]; 48 mg/kg once a day for 5 days (5QD), by day 4 after initiation of treatment, n = 8): 100%
mean time-to-clearance ([1]; 48 mg/kg once a day for 5 days (5QD), n = 8): 3.1 days

Cc1cc(C)n2c1C=C1C=CC(CCC(=O)Nc3ccc(OCC(=O)N[C@@H]4C(=O)N5[C@@H]4SC(C)(C)[C@@H]5C(=O)[O-])cc3)=[N+]1[B-]2(F)F.[Na+] [Bocillin-FL]
decrease in Bocillin-FL acylation rate against K361E (tPBP2^H041-K361E [5]; compared to the native enzyme): 5 fold
second-order acylation rate of Bocillin-FL against K361E (tPBP2^H041-K361E [5]; tPBP2^H041-K361E mutant, time-course): 57 ± 1 M⁻¹ s⁻¹
second-order acylation rate k2/Ks of Bocillin-FL (tPBP2^H041 [6]): 275 ± 9 M⁻¹ s⁻¹

N[C@@H](C(=O)N[C@@H]1C(=O)N2C(C(=O)O)=C(Cl)CS[C@H]12)c1ccccc1 [cefaclor]
MIC (N. gonorrhoeae H041; [11]): ≥ 32 µg/mL

NC(=O)c1cc[n+](CC2=C(C(=O)O)N3C(=O)[C@@H](NC(=O)[C@@H](c4ccccc4)S(=O)(=O)[O-])[C@H]3SC2)cc1 [cefsulodin]
MIC (N. gonorrhoeae H041; [11]): ≥ 32 µg/mL

Cc1cc(O)c(C(=O)N[C@@H](C(=O)N[C@@H]2C(=O)N3C(C(=O)O)=C(CSc4nnnn4C)CS[C@H]23)c2ccc(O)cc2)cn1 [cefpiramide]
k2/Ks lower than cefoperazone (tPBP2^H041 [3]): 100 fold

CC(C)(O/N=C(\C(=O)N[C@@H]1C(=O)N2C(C(=O)[O-])=C(C[n+]3ccccc3)CS[C@H]12)c1csc(N)n1)C(=O)O [ceftazidime]
Fractional Activity (tPBP2^H041-K361E [2]): 0.70
K361E k2/Ks (tPBP2^H041-K361E [2]): 560 ± 180 M⁻¹ s⁻¹
MIC (N. gonorrhoeae H041; [11]): ≥ 32 µg/mL

CO[C@@]1(NC(=O)Cc2cccs2)C(=O)N2C(C(=O)O)=C(COC(N)=O)CS[C@@H]21 [cefoxitin]
MIC (N. gonorrhoeae H041; 24 hr): 3 µg/mL (≈ 7.02 µM)
MIC (N. gonorrhoeae H041; [11]): 4 µg/mL (≈ 9.36 µM)

CCO/N=C(\C(=O)N[C@@H]1C(=O)N2C(C(=O)[O-])=C(Sc3nc(-c4cc[n+](C)cc4)cs3)CS[C@H]12)c1nsc(N)n1 [ceftaroline]
logD7.4 [7]: 1.03

CO/N=C(\C(=O)N[C@@H]1C(=O)N2C(C(=O)O)=C(CSc3nc(=O)c(=O)[nH]n3C)CS[C@H]12)c1csc(N)n1 [ceftriaxone]
increase in MIC on replacing wild-type penA in FA19 with penA41 [8]: 570 fold
reduction in acylation rate against K361E mutant (tPBP2^H041-K361E [2]): 6 fold
Fractional Activity (tPBP2^H041-K361E [2]): 0.17
K361E k2/Ks (tPBP2^H041-K361E [2]): 290 ± 70 M⁻¹ s⁻¹
k3 (deacylation rate) of acylated complex (tPBP2^H041 [9]): 8.1e-05 s⁻¹
MIC (N. gonorrhoeae H041; [11]): 2 µg/mL (≈ 3.61 µM)
increase in MIC compared to strain FA19 (H041; H041 versus FA19): 3,000 fold
MIC (H041; strain H041): 2 µg/mL (≈ 3.61 µM)
k3 (deacylation rate) of acylated complex [10]: 2.8e-06 s⁻¹
route of excretion [4]: primarily renal

C=CC1=C(C(=O)O)N2C(=O)[C@@H](NC(=O)/C(=N\O)c3csc(N)n3)[C@H]2SC1 [cefdinir]
MIC (N. gonorrhoeae H041; [11]): 2 µg/mL (≈ 5.06 µM)

CC(=O)OCC1=C(C(=O)O)N2C(=O)[C@@H](NC(=O)Cc3cccs3)[C@H]2SC1 [cephalothin]
MIC (N. gonorrhoeae H041; [11]): ≥ 32 µg/mL

CC1=C(C(=O)O)N2C(=O)[C@@H](NC(=O)[C@H](N)c3ccccc3)[C@H]2SC1 [cephalexin]
MIC (N. gonorrhoeae H041; [11]): ≥ 32 µg/mL

CO/N=C(\C(=O)N[C@@H]1C(=O)N2C(C(=O)[O-])=C(C[N+]3(C)CCCC3)CS[C@H]12)c1csc(N)n1 [cefepime]
Fractional Activity (tPBP2^H041-K361E [2]): 0.64
K361E k2/Ks (tPBP2^H041-K361E [2]): 410 ± 130 M⁻¹ s⁻¹
